{"source": "patent US5527793A", "about": "“Antibiotic carbapenem compounds” (Zeneca Limited, priority 1992, dated 1996)", "assay_in_all_cases": "MIC by agar-dilution technique, Diagnostic Sensitivity Test", "type_in_all_cases": "cell-based", "key": {"[1]": {"system": "S. aureus Oxford", "details": "Staphylococcus aureus, inoculum 10^4 CFU/spot, read-out: minimum inhibitory concentration (MIC)", "text": "(§1) The following results were obtained for representative compounds on a standard in vitro test system using Diagnostic Sensitivity Test. The antibacterial activity is described in terms of the minimum inhibitory concentration (MIC) determined by the agar-dilution technique with an inoculum size of 10^4 CFU/spot."}, "[2]": {"system": "E. coli DCO", "details": "Escherichia coli, inoculum 10^4 CFU/spot, read-out: minimum inhibitory concentration (MIC)", "text": "as §1"}, "[3]": {"system": "P. morganii I + 001", "details": "Morganella morganii, inoculum 10^4 CFU/spot, read-out: minimum inhibitory concentration (MIC)", "text": "as §1"}, "[4]": {"system": "Enterobacter cloacae P99-", "details": "P99, read-out: minimum inhibitory concentration (MIC)", "text": "as §1"}, "[5]": {"system": "B. fragilis AMP S", "details": "Bacteroides fragilis, inoculum 10^4 CFU/spot, read-out: minimum inhibitory concentration (MIC)", "text": "as §1"}}, "note": "Where a name gives a salt, the structure may show the parent alone."}
{"smiles": "C[C@@H](O)[C@H]1C(=O)N2C(C(=O)O)=C(S[C@@H]3CN[C@H](C(=O)Nc4nc(C(=O)O)cs4)C3)[C@H](C)[C@H]12", "note": "[Example 2, (1R,5S,6S,8R,2'S,4'S)-2-(2-(4-Carboxy-2-thiazolylcarbamoyl)pyrrolidin-4-ylthio)-6-(1-hydroxyethyl)71-methylcarbapenem-3-carboxylic acid, disodium salt]", "values": [{"measurement": "MIC", "setting": "[1]", "result": 0.25, "unit": "µg/mL"}, {"measurement": "MIC", "setting": "[2]", "result": 0.03, "unit": "µg/mL"}, {"measurement": "MIC", "setting": "[3]", "result": 0.03, "unit": "µg/mL"}, {"measurement": "MIC", "setting": "[4]", "result": 0.03, "unit": "µg/mL"}, {"measurement": "MIC", "setting": "[5]", "result": 0.5, "unit": "µg/mL"}]}
